Assay results reported in ChEMBL document CHEMBL1201862, “PubChem BioAssay data set” (2004).
Active and inactive are the calls of the source.

How the values were obtained:
[1] = tested on: Vibrio harveyi; test: Quorum Sensing, LuxS, LuxPQ Measured in Microorganism System Using Plate Reader - 2035-01_Inhibitor_DoseNoFile_DryPowder_Activity. [Related pubchem assays (depositor defined):AID2106]; format: functional, organism-based
[2] = tested on: Vibrio harveyi; test: LuxS/LuxPQ-dependent luminescence inhibition, V. harveyi – dry powder, set 2, dose response (AID 493072); format: functional, organism-based
[3] = target: G-protein coupled receptor 55 (Homo sapiens, UniProt Q9Y2T6); test: SAR analysis of selective Agonists of GPR55 using an Image-Based Assay - Set 2. [Related pubchem assays (depositor defined):AID1961, AID1965]; format: functional
Sequence of G-protein coupled receptor 55 (Q9Y2T6 whole entry): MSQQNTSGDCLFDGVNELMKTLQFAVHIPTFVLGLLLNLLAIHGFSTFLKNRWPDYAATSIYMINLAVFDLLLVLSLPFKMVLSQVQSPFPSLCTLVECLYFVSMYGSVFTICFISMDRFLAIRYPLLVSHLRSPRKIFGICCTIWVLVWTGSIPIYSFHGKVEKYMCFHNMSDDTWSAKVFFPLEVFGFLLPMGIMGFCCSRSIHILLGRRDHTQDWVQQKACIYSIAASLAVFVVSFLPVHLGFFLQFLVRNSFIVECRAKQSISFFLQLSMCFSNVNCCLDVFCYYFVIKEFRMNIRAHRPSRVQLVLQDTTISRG

[4] = target: T1, Cannabinoid receptor 1 (Homo sapiens, UniProt P21554); test: SAR analysis of agonists of the Cannabinoid Receptor 1 using an Image-Based Assay - Set 3. [Related pubchem assays (depositor defined):AID1961, AID1965]; format: functional
T1 sequence (P21554 whole entry): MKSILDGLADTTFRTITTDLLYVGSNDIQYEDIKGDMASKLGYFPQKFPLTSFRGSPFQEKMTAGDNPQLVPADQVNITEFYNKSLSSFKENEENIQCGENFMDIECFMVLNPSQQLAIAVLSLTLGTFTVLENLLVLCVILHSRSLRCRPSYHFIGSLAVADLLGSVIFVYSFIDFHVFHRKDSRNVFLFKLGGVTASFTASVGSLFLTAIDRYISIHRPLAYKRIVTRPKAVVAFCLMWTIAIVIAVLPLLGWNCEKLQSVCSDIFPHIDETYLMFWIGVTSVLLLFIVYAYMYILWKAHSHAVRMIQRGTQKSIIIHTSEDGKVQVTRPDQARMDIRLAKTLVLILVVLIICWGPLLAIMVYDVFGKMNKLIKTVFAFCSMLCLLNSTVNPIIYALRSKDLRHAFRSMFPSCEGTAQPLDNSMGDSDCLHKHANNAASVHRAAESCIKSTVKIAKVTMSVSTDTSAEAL

[5] = target: T2, G-protein coupled receptor 35 (Homo sapiens, UniProt Q9HC97); test: SAR analysis of Antagonists of the GPR35 Receptor using an Image-Based Assay - Set 4. [Related pubchem assays (depositor defined):[…]]; format: functional
T2 sequence (Q9HC97 whole entry): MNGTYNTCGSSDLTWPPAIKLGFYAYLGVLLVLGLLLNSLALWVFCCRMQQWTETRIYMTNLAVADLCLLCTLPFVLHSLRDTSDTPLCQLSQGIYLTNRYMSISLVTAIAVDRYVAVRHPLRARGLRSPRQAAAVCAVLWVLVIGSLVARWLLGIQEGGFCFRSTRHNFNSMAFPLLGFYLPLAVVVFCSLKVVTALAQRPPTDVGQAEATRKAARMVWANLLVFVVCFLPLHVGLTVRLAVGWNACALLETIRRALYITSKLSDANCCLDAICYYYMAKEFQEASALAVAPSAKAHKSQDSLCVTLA

[6] = target: T3, Cannabinoid receptor 2 (Homo sapiens, UniProt P34972); test: SAR analysis of antagonists of the Cannabinoid Receptor 2 using an Image-Based Assay - Set 2. [Related pubchem assays (depositor defined):AID1961, AID1965]; format: functional
T3 sequence (P34972 whole entry): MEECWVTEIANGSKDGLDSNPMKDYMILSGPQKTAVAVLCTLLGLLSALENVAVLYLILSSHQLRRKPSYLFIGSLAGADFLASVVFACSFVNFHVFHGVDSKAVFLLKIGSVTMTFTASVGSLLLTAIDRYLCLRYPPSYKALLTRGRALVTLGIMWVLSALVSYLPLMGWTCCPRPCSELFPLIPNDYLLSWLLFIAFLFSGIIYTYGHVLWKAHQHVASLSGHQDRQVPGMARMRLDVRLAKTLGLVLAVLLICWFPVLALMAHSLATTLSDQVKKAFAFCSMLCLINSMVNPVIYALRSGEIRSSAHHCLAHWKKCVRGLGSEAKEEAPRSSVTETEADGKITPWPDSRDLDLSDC

[7] = target: T1, Cannabinoid receptor 1; test: SAR analysis of antagonists of the Cannabinoid Receptor 1 using an Image-Based Assay - Set 3. [Related pubchem assays (depositor defined):AID1961, AID1965]; format: functional
[8] = target: T2, G-protein coupled receptor 35; test: SAR analysis of Agonists of the GPR35 Receptor using an Image-Based Assay - Set 3. [Related pubchem assays (depositor defined):AID1961, AID1965]; format: functional
[9] = target: T3, Cannabinoid receptor 2; test: SAR analysis of agonists of the Cannabinoid Receptor 2 using an Image-Based Assay - Set 2. [Related pubchem assays (depositor defined):AID1961, AID1965]; format: functional
[10] = tested on: T-cell; test: loss of vesicle association with mouse CD8+ T cells – mouse 2C CD8+ T cells, flow cytometry, dose response (AID 485284); format: functional
[11] = tested on: Streptococcus; test: GAS UMAA2166 growth inhibition – luminescence, BacTiterGlo, counter-screen for streptokinase expression inhibitor project, dose response (AID 1915); format: functional, organism-based;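 note: potency for reduction of bacterial viability or growth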
[12] = viability loss in HEK293 cells – cell-based, plate reader, cherry-picked samples, cytotoxicity control, dose response (AID 743446); format: functional
[13] = tested on: Streptococcus sp. 'group A'; test: Streptococcus pyogenes SK(-)GAS viability under kanamycin – luminescence, BacTiterGlo, confirmation, counter-screen for streptokinase expression inhibitor project, dose response (AID 1900); format: functional, organism-based
[14] = target: T4, Streptokinase A (Streptococcus pyogenes serotype M1, UniProt P10520); test: viability-normalized secreted streptokinase activity reduction – plasminogen activation absorbance, OD405, dose response (AID 1914); format: functional, Streptococcus pyogenes M1 GAS;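 note: secreted streptokinase activity via plasminogen activation per viability signal from cell pellet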
T4 sequence (P10520 whole entry): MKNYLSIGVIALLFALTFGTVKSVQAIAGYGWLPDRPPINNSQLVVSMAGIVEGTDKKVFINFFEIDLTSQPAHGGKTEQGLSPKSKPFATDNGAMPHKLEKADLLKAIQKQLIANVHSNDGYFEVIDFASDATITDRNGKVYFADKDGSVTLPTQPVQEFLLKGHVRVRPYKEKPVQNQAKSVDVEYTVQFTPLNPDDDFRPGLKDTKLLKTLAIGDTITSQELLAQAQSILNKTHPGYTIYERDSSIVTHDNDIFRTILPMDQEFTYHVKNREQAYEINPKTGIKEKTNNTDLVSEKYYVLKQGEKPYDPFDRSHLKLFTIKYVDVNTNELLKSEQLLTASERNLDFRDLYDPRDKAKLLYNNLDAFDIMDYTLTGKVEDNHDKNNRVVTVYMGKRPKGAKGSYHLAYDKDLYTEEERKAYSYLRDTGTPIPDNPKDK

[15] = tested on: INS1; test: INS-1E survival protection against cytokine death – cell-based, luminescence, retest, dose response (AID 449756); format: functional; conditions: Rattus norvegicus;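 note: cell death triggered by IL-1 beta plus TNF-alpha plus IFN-gamma mixture; protective hits raise ATP signal compared with cytokine alone wells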
[16] = blockers of bursicon-stimulated LGR2 cAMP reporter – cell-based, HEK293, CRE-luciferase reporter, cherry pick, set 2, dose response (AID 743343); format: functional;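 note: transfected cells were stimulated with diluted bursicon conditioned medium after compound addition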
[17] = toxicity toward HepG2 liver cells – cell-based, plate reader, cherry-pick, antagonist series, cytotoxicity control, dose response (AID 743416); format: functional
[18] = A549 cell cytotoxicity, dose response, cytotoxicity control, plate reader, cherry-pick, antagonist series (AID 743412); format: functional, cell-based
[19] = blockade of melanocortin 4 receptor signaling – cell-based, plate reader, cherry pick, counter-screen for LGR2 antagonist project, dose response (AID 743444); format: functional;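 note: transfected HEK 293 cells stimulated with alpha-MSH peptide; potency of inhibitors of the alpha-MSH evoked signal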
[20] = target: T5, Type-1 angiotensin II receptor (Homo sapiens, UniProt P30556); test: agonist activity at AGTR1 – cell-based, uHTS hits, selectivity assay for APJ receptor agonist project, dose response (AID 488865); format: functional;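 note: beta-arrestin recruitment to AT1 measured by enzyme fragment complementation luminescence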
T5 sequence (P30556 whole entry): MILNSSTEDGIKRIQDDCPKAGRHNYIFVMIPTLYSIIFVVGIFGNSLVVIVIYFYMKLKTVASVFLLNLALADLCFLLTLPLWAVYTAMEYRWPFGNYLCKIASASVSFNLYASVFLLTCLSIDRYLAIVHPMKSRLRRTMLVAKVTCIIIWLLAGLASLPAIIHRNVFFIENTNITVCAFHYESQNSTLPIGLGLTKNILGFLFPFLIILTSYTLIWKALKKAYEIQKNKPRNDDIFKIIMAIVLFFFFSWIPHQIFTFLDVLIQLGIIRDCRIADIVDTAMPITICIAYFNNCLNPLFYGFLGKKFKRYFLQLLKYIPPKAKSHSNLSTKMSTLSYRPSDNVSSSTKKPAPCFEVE

[21] = target: DNA damage-inducible transcript 3 protein (Mus musculus, UniProt P35639); format: functional, Cricetulus griseus
Sequence of DNA damage-inducible transcript 3 protein (P35639 whole entry): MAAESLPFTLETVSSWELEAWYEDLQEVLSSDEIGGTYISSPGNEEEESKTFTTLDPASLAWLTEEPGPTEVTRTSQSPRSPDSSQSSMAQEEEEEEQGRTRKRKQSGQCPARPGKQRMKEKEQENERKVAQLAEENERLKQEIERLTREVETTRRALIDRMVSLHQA

[22] = target: T6, Replicative DNA helicase DnaB (Mycobacterium tuberculosis, UniProt P9WMR3); test: DnaB intein splicing inhibitors, dose response, biochemical, cell-free fluorescence (AID 449749); format: functional
T6 sequence (P9WMR3 whole entry): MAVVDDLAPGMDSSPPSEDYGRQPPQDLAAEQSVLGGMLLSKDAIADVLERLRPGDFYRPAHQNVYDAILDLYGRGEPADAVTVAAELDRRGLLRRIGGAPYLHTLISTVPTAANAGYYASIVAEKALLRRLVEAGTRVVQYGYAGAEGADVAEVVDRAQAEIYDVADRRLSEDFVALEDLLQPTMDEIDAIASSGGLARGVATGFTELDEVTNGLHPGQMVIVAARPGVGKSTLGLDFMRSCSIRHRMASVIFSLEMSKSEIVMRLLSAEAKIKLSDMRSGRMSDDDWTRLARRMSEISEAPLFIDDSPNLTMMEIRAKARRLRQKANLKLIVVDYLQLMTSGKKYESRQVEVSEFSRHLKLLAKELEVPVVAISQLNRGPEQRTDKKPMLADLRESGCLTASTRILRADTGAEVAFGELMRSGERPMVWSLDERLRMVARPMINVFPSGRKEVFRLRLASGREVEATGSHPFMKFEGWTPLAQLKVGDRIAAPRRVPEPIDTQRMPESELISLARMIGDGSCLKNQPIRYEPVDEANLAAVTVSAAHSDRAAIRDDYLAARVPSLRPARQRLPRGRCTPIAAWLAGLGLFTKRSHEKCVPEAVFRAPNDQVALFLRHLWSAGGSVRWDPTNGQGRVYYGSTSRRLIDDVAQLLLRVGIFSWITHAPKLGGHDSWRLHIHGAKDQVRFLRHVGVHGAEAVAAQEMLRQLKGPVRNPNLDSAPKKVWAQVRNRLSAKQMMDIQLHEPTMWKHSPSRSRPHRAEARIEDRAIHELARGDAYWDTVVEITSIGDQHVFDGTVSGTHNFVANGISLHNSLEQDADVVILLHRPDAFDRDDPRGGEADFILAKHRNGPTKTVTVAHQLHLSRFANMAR

[23] = Intein inhibitors as potential Tuberculosis drugs, a cytotoxicity screen. [Related pubchem assays (depositor defined):AID2221, AID2223, AID434968, AID435010, AID449749, AID449750, AID489010]; format: functional
[24] = target: T7, Protein RecA (Mycobacterium tuberculosis, UniProt P9WHJ3); test: Fluorescence Cell-Free Homogeneous Dose Retest to Identify Inhibitors of RecA-Intein Splicing Activity. [Related pubchem assays (depositor defined):AID2097, AID2223, AID489010, AID492950]; format: functional
T7 sequence (P9WHJ3 whole entry): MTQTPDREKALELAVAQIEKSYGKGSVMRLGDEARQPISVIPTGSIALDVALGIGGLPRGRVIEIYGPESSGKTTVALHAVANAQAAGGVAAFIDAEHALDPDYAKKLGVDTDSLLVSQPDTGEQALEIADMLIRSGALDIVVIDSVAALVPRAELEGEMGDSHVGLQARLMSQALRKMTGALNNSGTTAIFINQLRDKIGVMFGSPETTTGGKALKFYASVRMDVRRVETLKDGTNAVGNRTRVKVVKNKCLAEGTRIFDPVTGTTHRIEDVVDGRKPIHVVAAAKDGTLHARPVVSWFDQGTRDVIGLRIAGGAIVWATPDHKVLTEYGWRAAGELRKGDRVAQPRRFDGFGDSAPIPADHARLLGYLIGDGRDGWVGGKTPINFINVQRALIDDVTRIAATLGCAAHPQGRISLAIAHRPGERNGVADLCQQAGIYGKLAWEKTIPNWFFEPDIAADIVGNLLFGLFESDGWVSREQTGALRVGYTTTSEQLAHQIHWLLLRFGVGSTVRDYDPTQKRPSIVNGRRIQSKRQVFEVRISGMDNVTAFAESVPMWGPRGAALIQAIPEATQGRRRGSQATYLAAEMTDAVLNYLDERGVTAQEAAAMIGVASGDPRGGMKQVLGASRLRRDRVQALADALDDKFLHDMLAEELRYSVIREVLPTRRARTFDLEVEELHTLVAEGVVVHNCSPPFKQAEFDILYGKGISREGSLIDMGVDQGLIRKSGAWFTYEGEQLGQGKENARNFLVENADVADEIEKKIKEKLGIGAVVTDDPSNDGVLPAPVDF

[25] = target: T8, Leucine aminopeptidase (Plasmodium falciparum 3D7, UniProt Q8IL11); test: P. falciparum M17LAP inhibitors, primary screen, biochemical, fluorogenic H-Leu-NHMec substrate, 1536-well (AID 1619); format: functional
T8 sequence (Q8IL11 whole entry): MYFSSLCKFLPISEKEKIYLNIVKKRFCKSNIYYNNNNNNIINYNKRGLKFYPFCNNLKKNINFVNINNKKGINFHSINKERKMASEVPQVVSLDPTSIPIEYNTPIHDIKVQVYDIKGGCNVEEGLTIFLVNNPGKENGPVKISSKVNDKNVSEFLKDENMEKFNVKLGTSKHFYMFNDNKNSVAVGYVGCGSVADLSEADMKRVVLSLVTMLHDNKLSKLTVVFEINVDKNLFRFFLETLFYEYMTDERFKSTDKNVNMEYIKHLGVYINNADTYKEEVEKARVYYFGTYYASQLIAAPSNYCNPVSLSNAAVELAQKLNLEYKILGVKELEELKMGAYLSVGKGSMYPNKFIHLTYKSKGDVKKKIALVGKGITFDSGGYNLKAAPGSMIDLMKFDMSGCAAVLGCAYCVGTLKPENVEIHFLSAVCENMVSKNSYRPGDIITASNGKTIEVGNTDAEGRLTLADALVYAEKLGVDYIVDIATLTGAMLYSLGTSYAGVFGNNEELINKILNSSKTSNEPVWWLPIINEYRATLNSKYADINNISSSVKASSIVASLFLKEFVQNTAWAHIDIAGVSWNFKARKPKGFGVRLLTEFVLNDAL
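Throughout, for CC50: cells exposed to compound for 72 hours before luminescence readout.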

SMILES: O=C1C=C/C(=C/Br)O1
- AC50 [1]: 4.81 µM (active)
- AC50 [2]: 3.1 µM (active)

SMILES: COc1ccc(-c2csc(NC(=O)CSc3nnc4c(C)cc5cc6c(cc5n34)OCCO6)n2)cc1
- EC50 [3]: > 32 µM (inactive)
- EC50 [4]: > 32 µM (inactive)
- IC50 [5]: > 32 µM (inactive)
- IC50 [6]: > 32 µM (inactive)
- IC50 [7]: > 32 µM (inactive)
- EC50 [8]: > 32 µM (inactive)
- EC50 [9]: > 32 µM (inactive)

SMILES: CN(Cc1ccccc1)C(=O)c1ccc(NC(=O)Cc2cccc(NC(=O)C3CCCN(C(=O)C4CCC4)C3)c2)cc1 (stereo not given)
- EC50 [10]: 5.41 µM (active)

SMILES: CCCCNc1c(-c2cccc(-c3ccc(OC)cc3)c2)nc2ccc(C)cn12
- EC50 [11]: 13.3 µM (active)
- AC50 [12]: 29.6 µM (active)
- EC50 [13]: 4.54 µM (active)
- EC50 [14]: 7.94 µM (active)
- AC50 [15]: 7.86 µM (active)
- AC50 [16]: 10.7 µM (active)
- AC50 [17]: 28.4 µM (active)
- AC50 [18]: 28.7 µM (active)
- AC50 [19]: 11 µM (active)
- EC50 [20]: > 100 µM (inactive)

SMILES: O=C(Cc1csc(Nc2nc(S)nc3ccccc23)n1)NCCCN1CCN(c2ccccc2F)CC1
- Absolute IC50 (CHOP) [21]: 10 µM

SMILES: N#CC1=C(N)Oc2[nH]nc(-c3ccccc3)c2C1c1ccsc1 (stereo not given)
- AC50 [22]: 0.142 µM (active)
- CC50 [23]: > 40 µM (active)
- EC50 [24]: 0.731 µM (active)
- IC50 [25]: 64.5 µM (active)
